For one data set, the system named is MCF-7 cells. The data set is described as follows: In vitro cytotoxicity, MTT assay, in MCF-7 cells. The data set is classed as cell-based. The note with it: Homo sapiens, MCF7, incubation for 72 h. The procedure: (§1) Cytotoxicity of pure PTX, PEG-g-hollow silica vesicles, and PTX loaded PEG-g-hollow silica vesicles was evaluated in MCF-7 cell lines and U-87 MG cell lines. Viability of the cells was assessed by the standard thiazolyl blue [3-(4,5-dimethyliazolyl-2)-2,5-diphenyl tetrazolium bromide] (MTT) assay. This colorimetric assay allows determination of the number of viable cells through the metabolic activity of the cells.
(§2) The cancer cells were seeded in 96-well plates with a seeding density 10,000 cells/well and were cultured in DMEM supplemented with 10% FBS and 1% penicillin/streptomycin solution in an incubator at 37° C., 5% CO2, and 95% relative humidity. The cells were allowed to adhere to the well bottom upon overnight incubation. Then the medium was replaced with the sample solutions of different concentrations. Meanwhile, wells containing only cell culture medium were prepared as untreated controls. At the predetermined time, the medium containing samples was aspirated and the wells were washed with 1×PBS solution for two times to removed non-internalized sample. […] The absorbance intensity of the solution was then quantified spectrophotometrically using a microplate reader (TECAN SpectraFluor Plus) at 570 nm. […]
(§3) where Abssample was the absorbance for the cells treated with the samples, while Abscontrol was the absorbance for the untreated control cells. […]
Background: Tetrazolium dyes change colour on reduction, which living cells bring about.

A short description of data set [1]: Release profile of paclitaxel by dialysis in 1×PBS buffer at 37° C., HPLC. It counts as physicochemical. Conditions: after 330 h, 1×PBS buffer solution. As for the experimental part: In a typical process, 0.7 mg of paclitaxel loaded PEG-graft-hollow silica was dispersed in 3 ml of 1×PBS buffer solution under ultrasonication for 2 h at a temperature below 30° C. The solution was transferred into a dialysis tube with a molecular weight cutting of 10 000. The dialysis tube was placed into a conical flask containing 40 ml of 1×PBS buffer solution. The conical flask was kept in a water bath at 37° C. and was stirred at 100 rpm. The outside buffer solution was exchanged with a fresh buffer solution at a predetermined time interval to maintain a sink condition. The released paclitaxel was extracted from the drawn buffer solution using 4 ml of dichloromethane. After shaking and setting down, the dichloromethane solution was collected. After chloromethane was evaporated at room temperature, the solid reconstituted in 2 mL of acetonitrile/water (50:50; v/v) for HPLC measurement to determine PTX amounts.
To measure the release profile of free PTX, 2 mg of PTX was firstly dissolved in 4 mL methanol to get a solution of a concentration of 0.5 mg/mL. After ultrasonication for 40 min, 0.4 mL of the solution was taken out and was dried by evaporating methanol. The solid was dissolved in 3 mL of 1×PBS solution (pH 7.4), and the release profile was monitored.

A further data set deals with U-87 MG cells. The data set is described as follows: In vitro cytotoxicity, MTT assay, in U-87 MG cells. It counts as cell-based. Conditions: Homo sapiens, incubation for 72 h. As for the experimental part: as §1, §2, §3
A short description of data set [2]: Saturated solubility of PTX in methanol. The data set is classed as physicochemical. Conditions: organic solvent or mixture, saturated solution in methanol.

The structures appear in SMILES notation. In brackets after ≈: the same amount, converted by molar mass.

Among the data in patent US20120045515A1, “HOLLOW SILICA PARTICLE WITH A POLYMER THEREON” (priority 2009, published 2012) are IC50, PTX released and solubility values, retold here.

As to `CC(=O)O[C@H]1C(=O)[C@@]2(C)[C@H]([C@H](OC(=O)c3ccccc3)[C@]3(O)C[C@H](OC(=O)[C@H](O)[C@@H](NC(=O)c4ccccc4)c4ccccc4)C(C)=C1C3(C)C)[C@]1(OC(C)=O)CO[C@@H]1C[C@@H]2O` [free PTX, paclitaxel], the IC50 – broadly, the concentration needed to halve the response being measured – with MCF-7 cells came out at 0.1 mg/L (≈ 0.117 µM); in the data set with U-87 MG cells, 0.073 mg/L (≈ 0.0855 µM). Moreover, the PTX released in data set [1] is given as 5%. Besides, in data set [2], the solubility (in general, the concentration that dissolves in the medium under given conditions) is 50 mg/mL (≈ 58600 µM).
